Legend:
U-251 = assay: Growth inhibition of human U251 cells assessed as cell growth at 5X10'-9 M after 48 hrs by sulforhodamine B assay; assay type: functional; conditions: U-251, 48 h, read-out: Activity
COLO 205 [1] = assay: Growth inhibition of human COLO205 cells assessed as cell growth at 5X10'-6 M after 48 hrs by sulforhodamine B assay; assay type: functional; conditions: COLO 205, 48 h, read-out: Activity
[2] = Growth inhibition of human HCC2998 cells assessed as cell growth at 5X10'-5 M after 48 hrs by sulforhodamine B assay; assay type: functional; conditions: HCC 2998, 48 h, read-out: Activity
MDA-MB-231 = assay: Growth inhibition of human MDA-MB-231 cells assessed as cell growth at 10 uM after 48 hrs by sulforhodamine B assay; assay type: functional; conditions: MDA-MB-231, 48 h, read-out: Activity
BT-549 = assay: Growth inhibition of human BT549 cells after 48 hrs by sulforhodamine B assay; assay type: functional; conditions: BT-549, 48 h
SR = assay: Growth inhibition of human SR cells after 48 hrs by sulforhodamine B assay; assay type: functional; conditions: for CC50: read-out: LC50 (the source's name)
A549 = assay: Growth inhibition of human A549/ATCC cells assessed as cell growth at 5X10'-9 M after 48 hrs by sulforhodamine B assay; assay type: functional; conditions: A549, 48 h, read-out: Activity
A498 [3] = assay: Growth inhibition of human A498 cells assessed as cell growth at 10 uM after 48 hrs by sulforhodamine B assay; assay type: functional; conditions: A498, 48 h, read-out: Activity
T47D = assay: Growth inhibition of human T47D cells after 48 hrs by sulforhodamine B assay; assay type: functional; conditions: for CC50: read-out: LC50 (the source's name)
LOX IMVI = assay: Growth inhibition of human LOXIMVI cells assessed as cell growth at 5X10'-6 M after 48 hrs by sulforhodamine B assay; assay type: functional; conditions: read-out: Activity
[4] = Growth inhibition of human NCI-ADR-RES cells assessed as cell growth at 5X10'-5 M after 48 hrs by sulforhodamine B assay; assay type: functional; conditions: read-out: Activity
CCRF-CEM [5] = assay: Growth inhibition of human CCRF-CEM cells assessed as cell growth at 10 uM after 48 hrs by sulforhodamine B assay; assay type: functional; conditions: read-out: Activity
MCF7 [6] = assay: Growth inhibition of human MCF7 cells assessed as cell growth at 5X10'-7 M after 48 hrs by sulforhodamine B assay; assay type: functional; conditions: MCF7, 48 h, read-out: Activity
HCT-15 = assay: Growth inhibition of human HCT15 cells assessed as cell growth at 5X10'-6 M after 48 hrs by sulforhodamine B assay; assay type: functional; conditions: HCT-15, 48 h, read-out: Activity
UO-31 = assay: Growth inhibition of human UO31 cells assessed as cell growth at 5X10'-8 M after 48 hrs by sulforhodamine B assay; assay type: functional; conditions: UO-31, 48 h, read-out: Activity
HCT-116 = assay: Growth inhibition of human HCT116 cells assessed as cell growth at 10 uM after 48 hrs by sulforhodamine B assay; assay type: functional; conditions: HCT-116, 48 h, read-out: Activity
[7] = Growth inhibition of human HCC2998 cells assessed as cell growth at 5X10'-6 M after 48 hrs by sulforhodamine B assay; assay type: functional; conditions: HCC 2998, 48 h, read-out: Activity
NCI-H226 [8] = assay: Growth inhibition of human NCI-H226 cells assessed as cell growth at 5X10'-5 M after 48 hrs by sulforhodamine B assay; assay type: functional; conditions: NCI-H226, 48 h, read-out: Activity
ACHN = assay: Growth inhibition of human ACHN cells after 48 hrs by sulforhodamine B assay; assay type: functional; conditions: for CC50: read-out: LC50 (the source's name)
MOLT-4 = assay: Growth inhibition of human MOLT4 cells assessed as cell growth at 5X10'-7 M after 48 hrs by sulforhodamine B assay; assay type: functional; conditions: MOLT-4, 48 h, read-out: Activity
Malme-3M = assay: Growth inhibition of human MALME-3M cells assessed as cell growth at 5X10'-6 M after 48 hrs by sulforhodamine B assay; assay type: functional; conditions: read-out: Activity
[9] = Growth inhibition of human HCC2998 cells assessed as cell growth at 5X10'-8 M after 48 hrs by sulforhodamine B assay; assay type: functional; conditions: HCC 2998, 48 h, read-out: Activity
NCI-H226 [10] = assay: Growth inhibition of human NCI-H226 cells assessed as cell growth at 5X10'-9 M after 48 hrs by sulforhodamine B assay; assay type: functional; conditions: NCI-H226, 48 h, read-out: Activity
KM12 = assay: Growth inhibition of human KM12 cells after 48 hrs by sulforhodamine B assay; assay type: functional, cell-based; conditions: KM12, 48 h; for CC50: read-out: LC50 (the source's name)
SK-MEL-2 = assay: Growth inhibition of human SK-MEL-2 cells assessed as cell growth at 5X10'-7 M after 48 hrs by sulforhodamine B assay; assay type: functional; conditions: SK-MEL-2, 48 h, read-out: Activity
OVCAR-8 = assay: Growth inhibition of human OVCAR8 cells assessed as cell growth at 5X10'-5 M after 48 hrs by sulforhodamine B assay; assay type: functional; conditions: OVCAR-8, 48 h, read-out: Activity
SF-539 = assay: Growth inhibition of human SF539 cells after 48 hrs by sulforhodamine B assay; assay type: functional; conditions: SF-539, 48 h
UACC-62 = assay: Growth inhibition of human UACC62 cells assessed as cell growth at 5X10'-5 M after 48 hrs by sulforhodamine B assay; assay type: functional; conditions: UACC-62, 48 h, read-out: Activity
MCF7 [11] = assay: Growth inhibition of human MCF7 cells assessed as cell growth at 10 uM after 48 hrs by sulforhodamine B assay; assay type: functional; conditions: MCF7, 48 h, read-out: Activity
CCRF-CEM [12] = assay: Growth inhibition of human CCRF-CEM cells assessed as cell growth at 5X10'-9 M after 48 hrs by sulforhodamine B assay; assay type: functional; conditions: read-out: Activity
NCI-H460 [13] = assay: Growth inhibition of human NCI-H460 cells after 48 hrs by sulforhodamine B assay; assay type: functional; conditions: NCI-H460, 48 h
A498 [14] = assay: Growth inhibition of human A498 cells assessed as cell growth at 5X10'-9 M after 48 hrs by sulforhodamine B assay; assay type: functional; conditions: A498, 48 h, read-out: Activity
DU-145 = assay: Growth inhibition of human DU145 cells assessed as cell growth at 5X10'-8 M after 48 hrs by sulforhodamine B assay; assay type: functional; conditions: DU-145, 48 h, read-out: Activity
COLO 205 [15] = assay: Growth inhibition of human COLO205 cells after 48 hrs by sulforhodamine B assay; assay type: functional; conditions: COLO 205, 48 h
CAKI-1 = assay: Growth inhibition of human CAKI-1 cells assessed as cell growth at 5X10'-8 M after 48 hrs by sulforhodamine B assay; assay type: functional; conditions: CAKI-1, 48 h, read-out: Activity
NCI-H460 [16] = assay: Growth inhibition of human NCI-H460 cells assessed as cell growth at 5X10'-6 M after 48 hrs by sulforhodamine B assay; assay type: functional; conditions: NCI-H460, 48 h, read-out: Activity

COc1cc(-c2nn(-c3cccc(NC(=O)Nc4cc(C(F)(F)F)cc(C(F)(F)F)c4)c3)cc2-c2ccncc2)ccc1Cl
growth at 0.005 µM (U-251): 97%
growth at 5 µM (COLO 205 [1]): -94%
growth at 50 µM [2]: -88%
growth at 10 µM (MDA-MB-231): -92%
GI50 (BT-549): 1210 nM
LC50 (50% lethal concentration) (BT-549): 29.6 µM
TGI (BT-549): 3.06 µM
GI50 (SR): 1080 nM
TGI (SR): 3.97 µM
CC50 (SR): > 50 µM
growth at 0.005 µM (A549): 96%
growth at 10 µM (A498 [3]): -14.6%
GI50 (T47D): 1550 nM
TGI (T47D): > 50 µM
CC50 (T47D): > 50 µM
growth at 5 µM (LOX IMVI): -90%
growth at 50 µM [4]: -16%
growth at 10 µM (CCRF-CEM [5]): -27.3%
growth at 0.5 µM (MCF7 [6]): 68%
growth at 5 µM (HCT-15): -57%
growth at 0.05 µM (UO-31): 94%
growth at 10 µM (HCT-116): -43.6%
growth at 5 µM [7]: -70%
growth at 50 µM (NCI-H226 [8]): -4%
GI50 (ACHN): 491 nM
TGI (ACHN): 5.72 µM
CC50 (ACHN): > 50 µM
growth at 0.5 µM (MOLT-4): 77%
growth at 5 µM (Malme-3M): -47%
growth at 0.05 µM [9]: 105%
growth at 0.005 µM (NCI-H226 [10]): 97%
GI50 (KM12): 531 nM
IC50 (KM12): 530 nM
TGI (KM12): 1340 nM
CC50 (KM12): 3.39 µM
growth at 0.5 µM (SK-MEL-2): 105%
growth at 50 µM (OVCAR-8): -11%
GI50 (SF-539): 829 nM
LC50 (concentration killing 50% of cells) (SF-539): 3.54 µM
TGI (SF-539): 1710 nM
growth at 50 µM (UACC-62): -72%
growth at 10 µM (MCF7 [11]): 1.74%
growth at 0.005 µM (CCRF-CEM [12]): 101%
GI50 (NCI-H460 [13]): 558 nM
LC50 (NCI-H460 [13]): 16.3 µM
TGI (NCI-H460 [13]): 1.87 µM
growth at 0.005 µM (A498 [14]): 90%
growth at 0.05 µM (DU-145): 111%
GI50 (COLO 205 [15]): 847 nM
LC50 (concentration killing 50% of cells) (COLO 205 [15]): 2.91 µM
TGI (COLO 205 [15]): 1.57 µM
growth at 0.05 µM (CAKI-1): 95%
growth at 5 µM (NCI-H460 [16]): -41%

COc1cc(-c2nn(-c3cccc(NC(=O)c4cccc(C(F)(F)F)c4)c3)cc2-c2ccncc2)ccc1Cl
growth at 0.005 µM (U-251): 94%
growth at 5 µM (COLO 205 [1]): 1%
growth at 50 µM [2]: -17%
growth at 10 µM (MDA-MB-231): 4.67%
GI50 (BT-549): 2870 nM
LC50 (50% lethal concentration) (BT-549): > 50 µM
TGI (BT-549): 46.8 µM
GI50 (SR): 838 nM
TGI (SR): 4.59 µM
CC50 (SR): > 50 µM
growth at 0.005 µM (A549): 102%
growth at 10 µM (A498 [3]): -19%
GI50 (T47D): 2550 nM
TGI (T47D): > 50 µM
CC50 (T47D): > 50 µM
growth at 5 µM (LOX IMVI): 8%
growth at 50 µM [4]: -9%
growth at 10 µM (CCRF-CEM [5]): 3.1%
growth at 0.5 µM (MCF7 [6]): 81%
growth at 5 µM (HCT-15): 15%
growth at 0.05 µM (UO-31): 75%
growth at 10 µM (HCT-116): 8.15%
growth at 5 µM [7]: 21%
growth at 50 µM (NCI-H226 [8]): -7%
GI50 (ACHN): 1890 nM
TGI (ACHN): > 50 µM
CC50 (ACHN): > 50 µM
growth at 0.5 µM (MOLT-4): 91%
growth at 5 µM (Malme-3M): 21%
growth at 0.05 µM [9]: 100%
growth at 0.005 µM (NCI-H226 [10]): 95%
GI50 (KM12): 1660 nM
TGI (KM12): > 50000 nM
CC50 (KM12): > 50 µM
growth at 0.5 µM (SK-MEL-2): 91%
growth at 50 µM (OVCAR-8): 10%
GI50 (SF-539): 895 nM
LC50 (concentration killing 50% of cells) (SF-539): > 50 µM
TGI (SF-539): 2300 nM
growth at 50 µM (UACC-62): 13%
growth at 10 µM (MCF7 [11]): 3.58%
growth at 0.005 µM (CCRF-CEM [12]): 100%
GI50 (NCI-H460 [13]): 1450 nM
LC50 (NCI-H460 [13]): > 50 µM
TGI (NCI-H460 [13]): 9.27 µM
growth at 0.005 µM (A498 [14]): 78%
growth at 0.05 µM (DU-145): 95%
GI50 (COLO 205 [15]): 1640 nM
LC50 (concentration killing 50% of cells) (COLO 205 [15]): 24.8 µM
TGI (COLO 205 [15]): 5.17 µM
growth at 0.05 µM (CAKI-1): 98%
growth at 5 µM (NCI-H460 [16]): 4%
